# Active and inactive are the calls of the source. The rule behind the calls is not given here.
# What was measured:
# OVCAR-3 = test: Compound tested for cytotoxicity against human cancer cell line (Ovcar 3 ovarian); assay type: functional; conditions: read-out: LC50 (the source's name)
# WiDr = test: Compound tested for cytotoxicity against human cancer cell line (WiDr Colon); assay type: functional; conditions: read-out: LC50 (the source's name)
# HT-29 [1] = test: Compound tested for cytotoxicity against human cancer cell line (HT-29 colon); Inactive; assay type: functional, cell-based
# HT-29 [2] = test: Compound tested for cytotoxicity against human cancer cell line (HT-29 colon); assay type: functional
SMILES,CC50 (WiDr),LC50 (50% lethal concentration) (HT-29 [2]),also measured
Oc1nc(CBr)nc2cc3c(O)nc(CBr)nc3cc12,900 nM,,CC50 (OVCAR-3): 850 nM
COCCn1c(CCl)nc2c(OC)c3c(=O)n(CCOC)c(CCl)nc3c(OC)c2c1=O,,,IA (HT-29 [1]): inactive
Cn1c(CBr)nc2cc3c(=O)n(C)c(CBr)nc3cc2c1=O,,280 nM,
Cn1c(CCl)nc2cc3c(=O)n(C)c(CCl)nc3cc2c1=O,350 nM,,CC50 (OVCAR-3): 2000 nM
CCCn1c(CCl)nc2cc3c(=O)n(CCC)c(CCl)nc3cc2c1=O,,800 nM,
COc1c2nc(CCl)n(C)c(=O)c2c(OC)c2nc(CCl)n(C)c(=O)c12,,110 nM,
COc1c2nc(CCl)n(C)c(=O)c2c(OC)c2c(=O)n(C)c(CCl)nc12,,6330 nM,
COCCCn1c(CCl)nc2c(OC)c3c(=O)n(CCCOC)c(CCl)nc3c(OC)c2c1=O,,,IA (HT-29 [1]): inactive
Oc1nc(CCl)nc2cc3c(O)nc(CCl)nc3cc12,5000 nM,,
CC(=O)Oc1nc2cc3c(=O)n(C)c(OC(C)=O)nc3cc2c(=O)n1C,,19000 nM,

# — ChEMBL document CHEMBL1135678, “Pyrimidoquinazoline-based antitumor agents. Design of topoisomerase II to DNA cross-linkers with activity against protein kinases” (2002)
